US20040077621A1, “Antioxidants” (Academia Sinica, priority 2002, published 2004)

Key:
[1] = system: human low density lipoprotein (LDL); test: LDL measurement assay (MDA formation during LDL peroxidation); type: biochemical
Protocol: (§1) The biological activities (e.g., antioxidative activities) of tetrapyrrole compounds described above can be evaluated by a number of assays. For example, an antioxidative activity of a test compound is evaluated by determining the compound's ability to inhibit the formation of conjugated diene during […] linoleic acid peroxidation (Wallin et al (1993) Anal. Biochem. 208: 10-15), or to inhibit the formation of malonyldialdhyde (MDA) during human low density lipoprotein (LDL) peroxidation (Yagi (1982) In lipid peroxides in Biology and Medicine. Yagi, K. (ed), pp. 223-242, Academic Press, New York). In another example, an antioxidative activity of a test compound is evaluated by determining the compound's ability to scavenge the free radicals of ? -diphenyl- ? -picrylhydrazyl (DPPH), or to scavenge superoxide anion, or to chelate Fe2+ cation, or to reduce power. See, e.g., Shimada et aL (1992) J. Agric. Food. Chem. 40: 945-948; Robak & Gryglewski (1988) Biochem. Pharma. 37: 837-841; Dinis et aL (1994) Arch Biochem Biophys 315: 161-169; and Oyaizu (1986) Nippon Shokuhin Kogyo Gakkaishi 35: 771-775.
Under a linoleic acid emulsion assay (see, e.g., Mitsuda et al. Eiyo Shokuryo (1966) 19:210-0.214 and Wallin et al. Anal. Biochem. (1993) 208:10-15), various degrees of inhibition of conjugated diene formation were observed during lipid peroxidation. In addition to Compounds 1-6, chlorophylls a and b were also tested. […] Further, compounds chelated with Mg, e.g., Compounds 1 and 2, had stronger antioxidative property than those without chelation, e.g., Compounds 3 and 4.

DPPH scavenging assay = type: physicochemical; conditions: DPPH free radical
Protocol: as §1
The compounds were also tested in four other assays, i.e., DPPH scavenging assay, superoxide anion scavenging assay, Fe^2+ chelation assay, and reduction assay. See Shimada et al. J. Agric. Food Chem. (1992) 40:945-948; Robak et al. Biochem. Pharnia. (1988) 37:837-841; Dinis et al. Arch. Biochem. Biophys. (1994) 315:161-169; and Oyaizu et al. Nippon Shokuhin Kogyo Gakkaishi (1986) 35:771-775. Compounds 3 and 4 were stronger scavengers than Compounds 5 and 6 in removing DPPH, which in turn were stronger scavengers than chlorophylls a and b and Compounds 1 and 2. […] The I50 values as to chelating Fe^2+ were lower than those as to scavenging DPPH free radical.

[2] = superoxide anion scavenging assay; type: physicochemical; conditions: increasing concentrations
Protocol: as §1
The compounds were also tested in four other assays, i.e., DPPH scavenging assay, superoxide anion scavenging assay, Fe^2+ chelation assay, and reduction assay. See Shimada et al. J. Agric. Food Chem. (1992) 40:945-948; Robak et al. Biochem. Pharnia. […]

Structure (SMILES)	IC50 [1]	IC50 (DPPH scavenging assay)	superoxide anion scavenging ability as concentration increased [2]
C=Cc1c(C)c2cc3nc(c4c5[nH]c(cc6nc(cc1[nH]2)C(C)=C6CC)c(C)c5C(=O)[C@@H]4C(=O)OC)[C@@H](CCC(=O)O)[C@@H]3C [Compound 3]	21 µM	~40 µM	–
C=Cc1c(C)c2cc3nc(c4c5[nH]c(cc6nc(cc1[nH]2)C(C)=C6CC)c(C)c5C(=O)[C@@H]4C(=O)OC)[C@@H](CCC(=O)O)[C@@H]3C [Compound 1]	10 µM	> 700 µM	–
Cc1c(C)c2c(c(C)c1O)CCC(C)(C(=O)O)O2 (stereo not shown) [Trolox, reference compound]	~16 µM	–	–
C=Cc1c(C)c2cc3nc(c4c5[nH]c(cc6nc(cc1[nH]2)C(C=O)=C6CC)c(C)c5C(=O)[C@@H]4C(=O)OC)[C@@H](CCC(=O)O)[C@@H]3C [Compound 2]	42 µM	~535 µM	–
C=Cc1c(C)c2cc3nc(c4c5[nH]c(cc6nc(cc1[nH]2)C(C=O)=C6CC)c(C)c5C(=O)[C@@H]4C(=O)OC)[C@@H](CCC(=O)O)[C@@H]3C [Compound 4]	20 µM	~28 µM	–
C=Cc1c(C)c2cc3nc(c4c5[nH]c(cc6nc(cc1[nH]2)C(C)=C6CC)c(C)c5C(=O)[C@@H]4C(=O)OC)[C@@H](CCC(=O)OC/C=C(\C)CCC[C@H](C)CCC[C@H](C)CCCC(C)C)[C@@H]3C [chlorophyll a, reference compound]	5 µM	~265 µM	–

More lines, main results first:

IC50 [1]	IC50 (DPPH scavenging assay)	Structure (SMILES)	superoxide anion scavenging ability as concentration increased [2]
54 µM	~120 µM	C=Cc1c(C)c2cc3nc(c4c5[nH]c(cc6nc(cc1[nH]2)C(C=O)=C6CC)c(C)c5C(=O)C4C(=O)OC)C(CCC(=O)OCC=C(C)CCCC(C)CCCC(C)CCCC(C)C)C3C (stereo not shown) [Compound 6]	a gradual increase and a subsequent plateau in their scavenging ability
17 µM	~160 µM	C=Cc1c(C)c2cc3nc(c4c5[nH]c(cc6nc(cc1[nH]2)C(C)=C6CC)c(C)c5C(=O)C4C(=O)OC)C(CCC(=O)OCC=C(C)CCCC(C)CCCC(C)CCCC(C)C)C3C (stereo not shown) [Compound 5]	a gradual increase and a subsequent plateau in their scavenging ability
26 µM	~200 µM	C=Cc1c(C)c2cc3nc(c4c5[nH]c(cc6nc(cc1[nH]2)C(C=O)=C6CC)c(C)c5C(=O)[C@@H]4C(=O)OC)[C@@H](CCC(=O)OC/C=C(\C)CCC[C@H](C)CCC[C@H](C)CCCC(C)C)[C@@H]3C [chlorophyll b, reference compound]	–
